Measurements reported in PubChem BioAssay (NCI).
Values joined by “and” are separate entries in the source; they are usually repeats but may differ in a detail not shown here. Equal values may be shown once.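 Cultured in 96-well plates, cells were exposed to test compound for 48 hours across five concentrations. GI50 marks 50% less growth. At the TGI there is no net growth.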

Assays:
Experiment in all cases: NCI tumour cell line growth inhibition, 48 h
UACC-62 melanoma = tested on: UACC-62 melanoma
HCT-116 colon = tested on: HCT-116 colon
SK-OV-3 ovarian = tested on: SK-OV-3 ovarian
DU-145 prostate = tested on: DU-145 prostate
M19-MEL melanoma = tested on: M19-MEL melanoma
SK-MEL-28 melanoma = tested on: SK-MEL-28 melanoma
MDA-MB-231 breast = tested on: MDA-MB-231 breast
LXFL 529 NSCLC = tested on: LXFL 529 NSCLC
NCI-H23 lung = tested on: NCI-H23 lung
BT-549 breast = tested on: BT-549 breast

SMILES | TGI (UACC-62 melanoma) | TGI (HCT-116 colon) | TGI (SK-OV-3 ovarian) | TGI (DU-145 prostate) | TGI (M19-MEL melanoma) | TGI (SK-MEL-28 melanoma) | TGI (MDA-MB-231 breast) | TGI (LXFL 529 NSCLC) | TGI (NCI-H23 lung) | TGI (BT-549 breast) | GI50 (UACC-62 melanoma) | GI50 (HCT-116 colon) | GI50 (SK-OV-3 ovarian) | GI50 (DU-145 prostate) | GI50 (MDA-MB-231 breast) | GI50 (NCI-H23 lung) | GI50 (BT-549 breast)
C=C(CN(C)C)C(=O)c1ccc(OC)cc1 | 20.4 µM | 12.8 µM | 41.3 µM | 10.7 µM | 7.52 µM | 8.63 µM | 17.3 µM | 3.31 µM | 22.2 µM | 18.1 µM | – | – | – | – | – | – | –
C/C=C1\C[C@@H]2C(OC)Nc3cc(O)c(OC)cc3C(=O)N2C1 (some centres not stated) | 0.00948 µM | – | 2.37 µM | 0.0248 µM and 0.21 µM | 0.0413 µM and 0.0101 µM | 0.0295 µM and 0.0176 µM | 0.0626 µM and 0.375 µM | 0.209 µM | 0.00892 µM | 0.0151 µM and 0.0269 µM | 0.00284 µM | 0.0172 µM | 0.00827 µM | 0.00348 µM | 0.0131 µM | 0.00262 µM | –
CN1CCN(CCCN2c3ccccc3Sc3ccc(C(F)(F)F)cc32)CC1 | 3.08 µM and 4.34 µM and 3.91 µM | 3.26 µM and 17.5 µM and 20.3 µM | 4.15 µM and 27.7 µM and 28.2 µM | 5.48 µM and 23.3 µM and 30.1 µM | 3.75 µM | 3.27 µM and 3.46 µM and 3.58 µM | 3.87 µM and 19.9 µM and 5.08 µM | 23 µM | 14.1 µM and 26.7 µM and 27.7 µM | 14.5 µM and 29.3 µM and 28.1 µM | 1.57 µM | 1.78 µM | 1.92 µM | 2.39 µM | 1.75 µM and 6.11 µM and 1.7 µM | 3.29 µM | 3.71 µM
